Structures can show the parent of a compound that is named as a salt.

This assay concerns 2-phenyl-1,4-benzoquinone-induced writhing. Nature of the assay: 2-phenyl-1,4-benzoquinone-induced writhing test in mice (Phenylquinone Writhing), analgesic activity. Type of assay: in vivo. The conditions noted are these: Mus musculus, sc, read-out: Inhibition of Writing ED50. The source says: Compounds of Formula I of the present invention, namely, compounds of Formulas II, III and IV are useful as analgesic agents due to their ability to alleviate pain in mammals. […] Exptl. Biol. Med., 95, 729 (1957)].
A general note: An intraperitoneal irritant provokes the stretching counted in writhing tests.
One may read the ED50 as the midpoint of the dose-response relation. For `CC1Nc2ccccc2N2CC3(CCN(C)CC3)c3cccc1c32` (stereo not shown) [1',6-Dimethyl-1,2,6,7-tetrahydro-spiro[indolo[1,7-ab][1,5]benzodiazepine-2,4'-piperidine]dihydrochloride], the ED50 came out at 9.7 mg/kg. In the case of `CC1=Nc2ccccc2N2CC3(CCN(C)CC3)c3cccc1c32` [1,2-Dihydro-1',6-dimethyl-spiro[indolo[1,7-ab][1,5]benzodiazepine-2,4'-piperidine]dihydrochloride] it was 4.7 mg/kg; in that of `CN1CCC2(CC1)CN1c3ccccc3N=Cc3cccc2c31` [1,2-Dihydro-1'-methyl-spiro[indolo[1,7-ab][1,5]benzodiazepine-2,4'-piperidine]dihydrochloride], 12.1 mg/kg. Consider `CC1c2cccc3c2N(CC32CCN(C)CC2)c2ccccc2N1C(=O)CCN(C)C` (stereo not shown) [7-(N,N-dimethyl-3-aminopropionyl)-1',6-dimethyl-1,2,6,7-tetrahydro-spiro[indolo[1,7-ab][1,5]benzodiazepine-2,4'-piperidine]dihydrobromide], for which the ED50 came to 28.4 mg/kg.

(Values after patent publication US4472414A, “Spiro[indolo[1,7-ab][1,5]benzodiazepine-2,4'-piperidines]” (Hoechst-Roussel Pharmaceuticals Incorporated, priority 1983, dated 1984).)
